Measurements: patent publication US20240226107A1, “UBIQUITIN-SPECIFIC PROTEASE 1 (USP1) INHIBITOR” (SIMCERE ZAIMING PHARMACEUTICAL CO., LTD., priority 2021, published 2024)

How the values were obtained:
[1] = test system: MDA-MB-436 cells;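 also: MDA-MB-436 proliferation over 7 days with compound, viability read as ATP luminescence (CellTiter-Glo), inhibition relative to DMSO-only wells, day 0 signal as background, GI50 from four-parameter fit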
Protocol: Assay based on CellTiter-Glo luminescent cell viability assay system.
The assay kit (CellTiter-Glo® Luminescent Cell Viability Assay) was purchased from Promega, with Cat. No. of G7573, and was stored at −30° C. after subpackage. The kit is a homogeneous assay method for assaying the number of viable cells in a culture based on quantitative determination of ATP. The kit produces a luminescence signal proportional to the amount of ATP present, and the amount of ATP is directly proportional to the number of cells in the culture.
The cultured cells were trypsinized, collected and centrifuged, then resuspended at an adjusted concentration in a culture solution (DMEM+10% FBS), and cultured overnight on a 384-well plate (400 cells/20 μl/well) in a cell incubator with 5% CO2 at 37° C. An ECHO instrument was used to added the compound and pure DMSO onto each well of the 384-well plate. The total volume of the compound and DMSO is 100 nL, and the instrument obtains gradient diluted sample concentrations through different ratios. To each well, 30 μL of culture solution was added, and after mixing by centrifugal oscillation and re-centrifugation, the cells were cultured in a cell incubator for 7 days (one column of cells was subjected to CTG assay on the day of dosing). After day 7, 25 μL of CTG assay solution was added to each well, and after mixing by centrifugal oscillation and re-centrifugation, the cells were placed at room temperature away from light for 10 min. In terms of chemiluminescence signals, an Envision plate reader (PerkinElmer, emission wavelength: 400-700 nm) was used to measure a signal in each well. The chemiluminescence value [RLU]cpd on day 7 was obtained for the treatment group, the chemiluminescence value [RLU]cell on day 7 was obtained for the non-treatment group (given DMSO only), and the chemiluminescence value [RLU]background on day 0 was obtained for the parallel non-treatment group (given DMSO only) by CTG assay on day 0. […] In the following equation, x represents the concentration of the compound in a logarithmic form; and F(x) represents an effect value (inhibition rate of proliferation at the concentration): F(x)=(A+((B−A)/(1+((C/x)^D)))). A, B, C, and D are four parameters.

[2] = molecular target: USP1 (Recombinant Human His6-USP1/His6-UAF1 Complex Protein) (Homo sapiens (Human), UniProt O94782); experiment: In vitro activity assay for USP1 (Ub-CHOP2-Reporter deubiquitination assay); type: biochemical; details: 0.5 h incubation at room temperature, read-out: In vitro inhibitory activity of USP1 IC50
USP1 (Recombinant Human His6-USP1/His6-UAF1 Complex Protein), sequence (O94782 whole entry): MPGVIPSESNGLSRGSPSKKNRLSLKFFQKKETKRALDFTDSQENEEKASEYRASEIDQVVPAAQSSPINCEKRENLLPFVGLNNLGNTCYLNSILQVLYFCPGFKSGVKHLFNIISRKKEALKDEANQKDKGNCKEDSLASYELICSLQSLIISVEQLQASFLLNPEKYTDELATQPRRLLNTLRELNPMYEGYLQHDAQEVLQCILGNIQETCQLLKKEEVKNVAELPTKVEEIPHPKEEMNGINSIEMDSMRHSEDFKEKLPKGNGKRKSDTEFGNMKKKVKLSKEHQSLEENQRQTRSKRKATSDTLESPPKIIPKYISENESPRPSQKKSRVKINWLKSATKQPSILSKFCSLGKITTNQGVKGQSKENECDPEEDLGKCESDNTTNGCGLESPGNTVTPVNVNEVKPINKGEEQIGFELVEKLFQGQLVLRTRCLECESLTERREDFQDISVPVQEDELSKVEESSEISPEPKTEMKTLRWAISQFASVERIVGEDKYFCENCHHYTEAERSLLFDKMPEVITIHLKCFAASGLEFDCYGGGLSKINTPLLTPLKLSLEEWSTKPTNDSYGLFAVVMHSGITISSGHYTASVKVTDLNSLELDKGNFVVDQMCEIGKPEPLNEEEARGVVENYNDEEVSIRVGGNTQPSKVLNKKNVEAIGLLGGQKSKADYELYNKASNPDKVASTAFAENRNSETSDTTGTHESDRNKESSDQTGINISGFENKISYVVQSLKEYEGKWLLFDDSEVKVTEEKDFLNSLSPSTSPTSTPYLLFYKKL
USP1 (Recombinant Human His6-USP1/His6-UAF1 Complex Protein), sequence (Q8TAF3 whole entry partner): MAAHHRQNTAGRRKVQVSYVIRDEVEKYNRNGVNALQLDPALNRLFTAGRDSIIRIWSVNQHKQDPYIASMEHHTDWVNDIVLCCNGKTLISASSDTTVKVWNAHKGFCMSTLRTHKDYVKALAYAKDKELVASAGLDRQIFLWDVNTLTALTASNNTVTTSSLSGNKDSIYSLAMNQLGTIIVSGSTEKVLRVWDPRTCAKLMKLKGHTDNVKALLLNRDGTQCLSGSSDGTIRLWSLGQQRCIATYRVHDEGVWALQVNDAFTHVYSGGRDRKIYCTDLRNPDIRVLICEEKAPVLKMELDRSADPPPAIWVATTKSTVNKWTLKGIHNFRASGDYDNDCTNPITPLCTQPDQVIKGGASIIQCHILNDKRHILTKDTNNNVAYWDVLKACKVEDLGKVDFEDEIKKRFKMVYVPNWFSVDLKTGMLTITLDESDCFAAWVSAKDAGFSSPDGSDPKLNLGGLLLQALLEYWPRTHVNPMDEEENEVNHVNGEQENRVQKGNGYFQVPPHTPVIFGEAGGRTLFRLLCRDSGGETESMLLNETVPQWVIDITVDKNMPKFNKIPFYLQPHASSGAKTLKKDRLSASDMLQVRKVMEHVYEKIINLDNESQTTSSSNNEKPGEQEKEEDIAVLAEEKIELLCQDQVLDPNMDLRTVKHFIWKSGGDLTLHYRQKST
Protocol: The assay kit (Ub-CHOP2-Reporter Deubiquitination Assay Kit) was purchased from Lifesensors, with Cat. No. of PR1101. The assay kit was subpackaged and stored at −80° C.
Each compound to be tested was dissolved with DMSO to 10 mM. The compound and pure DMSO (with a total volume of 50 nL) were loaded to each well of the 384-well plate by using an ECHO instrument to obtain gradient-diluted sample concentrations at different ratios. The enzyme was diluted with a freshly prepared reaction solution (20 mM Tris-HCl (pH 8.0), 2 mM CaCl2, 2 mM β-mercaptoethanol, 0.05% CHAPS, and ddH2O). To each well, 5 μL of diluted enzyme reaction solution was added, then the plate was centrifuged and oscillated to mix the enzyme and the compound, and the mixture was centrifuged again and placed on ice. The kit reporter system and the substrate were diluted with the reaction solution, then 5 μL of diluted liquid was added to each well, and mixed by centrifugation. The mixture was incubated at room temperature for 0.5 h. […] The inhibitory activity (IC50 values) of the compound on enzyme activity was calculated by using a four-parameter Logistic Model. […] A, B, C, and D are four parameters.

| Compound | GI50 [1] [nM] | IC50 [2] [nM] |
| --- | --- | --- |
| COc1ncnc(C2CC2)c1-c1ncc2nc(C)c(=O)n(Cc3ccc(-c4nc(C(F)(F)F)cn4C)cc3)c2n1 [Compound 61, 2-(4-cyclopropyl-6-methoxypyrimidin-5-yl)-6-methyl-8-(4-(1-methyl-4-(trifluoromethyl)-1H-imidazol-2-yl)benzyl)pteridin-7(8H)-one] | 81.4 | 36.3 |
| COc1ncnc(C2CC2)c1-c1ncc2c(n1)N(Cc1ccc(-c3nc(C(F)(F)F)cn3C)c(F)c1)CC(=O)N2C [Compound 65, 2-(4-cyclopropyl-6-methoxypyrimidin-5-yl)-5-methyl-8-(3-fluoro-4-(1-methyl-4-(trifluoromethyl)-1H-imidazol-2-yl)benzyl)-7,8-dihydropteridin-6(5H)-one] | 26.8 | 28.5 |
| COc1ncnc(C2CC2)c1-c1ncc2c(n1)N(Cc1ccc(-c3nc(C(F)(F)F)cn3C)c(F)c1)C(=O)OC2(C)CO (centres unmarked) [Compound 58, 7-(4-cyclopropyl-6-methoxypyrimidin-5-yl)-1-(3-fluoro-4-(1-methyl-4-(trifluoromethyl)-1H-imidazol-2-yl)benzyl)-4-(hydroxymethyl)-4-methyl-1,4-dihydro-2H-pyrimido[4,5-d][1,3]oxazin-2-one] | 81.8 | 36.9 |
| COc1ncnc(C2CC2)c1-c1ncc2c(n1)N(Cc1ccc(-c3nc(C(F)(F)F)cn3C)cc1)C(=O)C(C)O2 (centres unmarked) [Compound 21, 2-(4-cyclopropyl-6-methoxypyrimidin-5-yl)-6-methyl-8-(4-(1-methyl-4-(trifluoromethyl)-1H-imidazol-2-yl)benzyl)-6H-pyrimido[5,4-b][1,4]oxazin-7(8H)-one] | 97.5 | 16.7 |
| COc1ncnc(C2CC2)c1-c1ncc2c(n1)N(Cc1cc(F)c(-c3nc(C(F)(F)F)cn3C)c(F)c1)CCO2 [Compound 62] | 12.3 | 9.8 |
| COc1ncnc(C2CC2)c1-c1ncc2c(n1)N(Cc1ccc(-c3nc(C(F)(F)F)cn3C)cc1)CC(=O)N2CC(F)(F)F [Compound 25, 2-(4-cyclopropyl-6-methoxypyrimidin-5-yl)-5-(2,2,2-trifluoroethyl)-8-(4-(1-methyl-4-(trifluoromethyl)-1H-imidazol-2-yl)benzyl)-7,8-dihydropteridin-6(5H)-one] | 84.8 | 27.2 |
| COc1ncnc(C2CC2)c1-c1ncc2c(n1)N(Cc1ccc(-c3nc(C(F)(F)F)cn3C)c(F)c1)CC(=S)N2C [Compound 83, 2-(4-cyclopropyl-6-methoxypyrimidin-5-yl)-8-(3-fluoro-4-(1-methyl-4-(trifluoromethyl)-1H-imidazol-2-yl)benzyl)-5-methyl-7,8-dihydropteridine-6(5H)-thione] | 23 | 48.5 |

Continued by falling GI50 [1], values first:

| GI50 [1] [nM] | IC50 [2] [nM] | Compound |
| --- | --- | --- |
| 364 | 69.5 | COc1ncnc(C2CC2)c1-c1ncc2c(=O)n(C)c(=O)n(Cc3ccc(-c4nc(C(F)(F)F)cn4C)cc3)c2n1 [Compound 35, 7-(4-cyclopropyl-6-methoxypyrimidin-5-yl)-3-methyl-1-(4-(1-methyl-4-(trifluoromethyl)-1H-imidazol-2-yl)benzyl)pyrimido[4,5-d]pyrimidine-2,4(1H,3H)-dione] |
| 69.3 | 27.2 | COc1ncnc(C2CC2)c1-c1ncc2c(n1)N(Cc1ccc(-c3nc(C(F)(F)F)cn3C)cc1)C(=O)OC2C (centres unmarked) [Compound 81, 7-(4-cyclopropyl-6-methoxypyrimidin-5-yl)-4-methyl-1-(4-(1-methyl-4-(trifluoromethyl)-1H-imidazol-2-yl)benzyl)-1,4-dihydro-2H-pyrimido[4,5-d][1,3]oxazin-2-one] |
| 47.3 | 21.3 | COc1ncnc(C2CC2)c1-c1cc2c(cn1)OCCN2Cc1ccc(-c2nc(C(F)(F)F)cn2C)cc1 [Compound 3, 7-(4-cyclopropyl-6-methoxypyrimidin-5-yl)-1-(4-(1-methyl-4-(trifluoromethyl)-1H-imidazol-2-yl)benzyl)-2,3-dihydro-1H-pyrido[3,4-b][1,4]oxazine] |
